Assay results as given in BindingDB's records for doi:10.1016/j.chembiol.2004.12.010 (National Institutes of Health, 2005).
Where “and” joins values, the source holds several entries; their conditions need not be identical. Equal values may be shown once.

Legend:
Test in all cases: Binding Assay
Adenosine receptor A1 = biological target: T1, Adenosine receptor A1 (Homo sapiens, UniProt P30542)
T1 sequence (P30542 whole entry): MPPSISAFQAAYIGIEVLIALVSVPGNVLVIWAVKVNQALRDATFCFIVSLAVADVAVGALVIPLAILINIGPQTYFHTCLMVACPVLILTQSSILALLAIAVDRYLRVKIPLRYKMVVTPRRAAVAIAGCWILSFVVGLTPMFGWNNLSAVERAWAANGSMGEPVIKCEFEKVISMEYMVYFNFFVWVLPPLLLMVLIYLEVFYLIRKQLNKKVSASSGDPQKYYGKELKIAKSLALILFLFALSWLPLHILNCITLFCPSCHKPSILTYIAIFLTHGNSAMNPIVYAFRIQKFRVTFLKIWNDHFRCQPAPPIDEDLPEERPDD
Description: (§1) Binding affinity of ligand at human adenosine receptors expressed in CHO cell.

Adenosine receptor A2a [1] = biological target: T2, Adenosine receptor A2a (Homo sapiens, UniProt P29274)
Description: as §1

Adenosine receptor A2b = biological target: T3, Adenosine receptor A2b (Homo sapiens, UniProt P29275)
T3 sequence (P29275 whole entry): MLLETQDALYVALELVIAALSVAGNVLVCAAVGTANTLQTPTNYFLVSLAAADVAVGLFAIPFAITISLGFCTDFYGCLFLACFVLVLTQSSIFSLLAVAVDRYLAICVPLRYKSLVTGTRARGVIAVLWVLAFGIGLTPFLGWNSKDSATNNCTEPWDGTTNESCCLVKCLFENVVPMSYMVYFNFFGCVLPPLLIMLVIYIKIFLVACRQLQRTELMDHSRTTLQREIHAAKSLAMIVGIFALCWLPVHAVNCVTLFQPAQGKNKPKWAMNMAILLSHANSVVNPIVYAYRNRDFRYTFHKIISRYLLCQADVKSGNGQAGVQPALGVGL
Description: as §1

Adenosine receptor A3 = biological target: T4, Adenosine receptor A3 (Homo sapiens, UniProt P0DMS8)
T4 sequence (P0DMS8 whole entry): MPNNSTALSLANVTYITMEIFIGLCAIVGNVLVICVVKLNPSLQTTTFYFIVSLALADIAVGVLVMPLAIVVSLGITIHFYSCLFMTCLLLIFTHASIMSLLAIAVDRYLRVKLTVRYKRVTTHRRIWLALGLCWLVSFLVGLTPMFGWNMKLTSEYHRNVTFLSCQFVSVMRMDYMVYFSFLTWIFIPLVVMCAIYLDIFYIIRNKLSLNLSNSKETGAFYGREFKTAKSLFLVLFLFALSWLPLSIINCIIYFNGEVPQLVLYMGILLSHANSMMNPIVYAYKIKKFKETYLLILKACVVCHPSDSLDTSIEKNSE
Description: as §1

Adenosine receptor A2a [2] = biological target: T2, Adenosine receptor A2a; settings: pH 7.4; 25 °C
Description: Binding affinity of ligand at WT and mutant human A2A ARs expressed in COS7 cell.

T2 sequence (P29274 whole entry): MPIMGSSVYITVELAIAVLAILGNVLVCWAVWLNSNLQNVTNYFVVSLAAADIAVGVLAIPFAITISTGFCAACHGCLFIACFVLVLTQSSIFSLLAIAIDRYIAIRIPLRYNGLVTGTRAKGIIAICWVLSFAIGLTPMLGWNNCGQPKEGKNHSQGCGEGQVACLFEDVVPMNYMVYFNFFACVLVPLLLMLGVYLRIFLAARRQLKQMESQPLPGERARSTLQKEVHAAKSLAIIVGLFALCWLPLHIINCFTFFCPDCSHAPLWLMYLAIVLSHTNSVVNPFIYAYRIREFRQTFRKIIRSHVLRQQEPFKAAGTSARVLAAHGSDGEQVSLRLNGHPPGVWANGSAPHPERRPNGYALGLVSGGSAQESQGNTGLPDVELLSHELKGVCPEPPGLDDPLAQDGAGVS

| SMILES | Ki (Adenosine receptor A1) | Ki (Adenosine receptor A2a [1]) | EC50 (Adenosine receptor A2b) | Ki (Adenosine receptor A3) | Ki (Adenosine receptor A2a [2]) |
| --- | --- | --- | --- | --- | --- |
| NNC(=O)[C@H]1O[C@@H](n2cnc3c(N)ncnc32)[C@H](O)[C@@H]1O | 0.171 µM | 2.23 µM | 12 µM | 0.378 µM | – |
| CCNC(=O)[C@H]1O[C@@H](n2cnc3c(N=C(N)N)ncnc32)[C@H](O)[C@@H]1O | 0.007 µM | 0.628 µM | 0.0545 µM | 0.0051 µM | 4.51 µM and 5.68 µM and 0.773 µM and 1.14 µM |
| NCCNC(=O)[C@H]1O[C@@H](n2cnc3c(N)ncnc32)[C@H](O)[C@@H]1O [5'-N-[(2-AMINO)ETHYL CARBOXAMIDO] ADENOSINE] | 0.245 µM | – | 15.6 µM | – | – |
| CNC(=O)[C@H]1O[C@@H](n2cnc3c(NCCN)ncnc32)[C@H](O)[C@@H]1O [Adenosine analog, 5] | 0.775 µM | > 100 µM | > 10 µM | 24.6 µM | > 100 µM |
| NCCCNC(=O)[C@H]1O[C@@H](n2cnc3c(N)ncnc32)[C@H](O)[C@@H]1O [Adenosine analog, 8] | > 100 µM | > 10 µM | > 10 µM | > 10 µM | – |
| NCCCCNC(=O)[C@H]1O[C@@H](n2cnc3c(N)ncnc32)[C@H](O)[C@@H]1O [Adenosine analog, 9] | > 100 µM | > 100 µM | > 10 µM | > 10 µM | > 100 µM and 55.2 µM and 48.1 µM |
| NCCCCCNC(=O)[C@H]1O[C@@H](n2cnc3c(N)ncnc32)[C@H](O)[C@@H]1O [Adenosine analog, 10] | > 100 µM | > 100 µM | > 10 µM | > 100 µM | > 100 µM and 124 µM |
| Nc1ncnc2c1ncn2[C@@H]1O[C@H](C(=O)NCCO)[C@@H](O)[C@H]1O [Adenosine analog, 11] | – | – | 0.942 µM | – | – |
| Cc1ccccc1CNc1ncnc2c1ncn2[C@@H]1O[C@H](C(=O)NN)[C@@H](O)[C@H]1O [Adenosine analog, 12] | > 10 µM | > 10 µM | > 100 µM | 0.394 µM | – |
| CCNC(=O)[C@H]1O[C@@H](n2cnc3c(NCc4ccccc4C)ncnc32)[C@H](O)[C@@H]1O [Adenosine analog, 13] | 0.106 µM | 5.43 µM | > 1 µM | 0.0788 µM | – |
| Cc1ccccc1CNc1ncnc2c1ncn2[C@@H]1O[C@H](C(=O)NCCN)[C@@H](O)[C@H]1O [Adenosine analog, 14] | > 10 µM | 55.9 µM | > 1 µM | > 10 µM | – |
| Cc1ccccc1CNc1ncnc2c1ncn2[C@@H]1O[C@H](C(=O)NCCO)[C@@H](O)[C@H]1O [Adenosine analog, 15] | 0.368 µM | > 10 µM | 3.72 µM | 1.64 µM | – |
| Cc1ccccc1CNc1ncnc2c1ncn2[C@@H]1O[C@H](CO)[C@@H](O)[C@H]1O [Adenosine analog, 16] | 0.0393 µM | 0.764 µM | – | 0.0472 µM | – |
| CNc1nc(N)nc2c1ncn2[C@@H]1O[C@H](CO)[C@@H](O)[C@H]1O [Adenosine analog, 17] | 0.484 µM | > 10 µM | > 10 µM | 0.039 µM | > 100 µM |
| CNc1nc(CN)nc2c1ncn2[C@@H]1O[C@H](CO)[C@@H](O)[C@H]1O [Adenosine analog, 18] | > 10 µM | > 10 µM | > 10 µM | 0.719 µM | > 100 µM |
| CNc1nc(C(=N)N)nc2c1ncn2[C@@H]1O[C@H](CO)[C@@H](O)[C@H]1O [Adenosine analog, 19] | > 10 µM | > 10 µM | > 10 µM | 2.73 µM | > 100 µM |
